Laboratory results: ChEMBL document CHEMBL3797167, “Development of a peptide-based inducer of nuclear receptors degradation” (Bioorg Med Chem Lett, 2016)
Activity calls are given as the source filed them. No cut-off for these calls is given here.

Tests used:
Type in all cases: cell-based
[1] = target: T1, Estrogen receptor (Homo sapiens) (UniProt P03372); experiment: Induction of ERalpha degradation in human MCF7 cells at 0.1 to 1 uM after 6 hrs by Western blot analysis
T1 sequence (whole entry): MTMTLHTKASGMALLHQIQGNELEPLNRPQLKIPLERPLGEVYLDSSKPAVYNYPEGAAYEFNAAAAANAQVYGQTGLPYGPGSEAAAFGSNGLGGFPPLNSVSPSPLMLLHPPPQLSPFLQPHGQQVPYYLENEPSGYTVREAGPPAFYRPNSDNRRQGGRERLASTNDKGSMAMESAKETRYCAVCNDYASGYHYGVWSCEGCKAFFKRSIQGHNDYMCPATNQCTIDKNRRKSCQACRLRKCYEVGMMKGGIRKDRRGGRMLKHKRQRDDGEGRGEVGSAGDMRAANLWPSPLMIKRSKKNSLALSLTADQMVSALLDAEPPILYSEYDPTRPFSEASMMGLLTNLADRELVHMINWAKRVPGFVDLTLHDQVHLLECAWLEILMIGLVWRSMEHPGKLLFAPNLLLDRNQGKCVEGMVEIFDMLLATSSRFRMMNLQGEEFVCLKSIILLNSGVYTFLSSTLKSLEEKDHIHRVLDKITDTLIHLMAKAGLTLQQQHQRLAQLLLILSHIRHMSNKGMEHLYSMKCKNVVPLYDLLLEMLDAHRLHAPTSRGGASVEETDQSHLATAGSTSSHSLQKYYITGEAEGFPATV

[2] = target: Baculoviral IAP repeat-containing protein 2 (Homo sapiens) (UniProt Q13490); experiment: Induction of cIAP1 degradation in human MCF7 cells at 1 uM after 6 hrs by Western blot analysis
Baculoviral IAP repeat-containing protein 2 (Homo sapiens), sequence (Q13490 whole entry): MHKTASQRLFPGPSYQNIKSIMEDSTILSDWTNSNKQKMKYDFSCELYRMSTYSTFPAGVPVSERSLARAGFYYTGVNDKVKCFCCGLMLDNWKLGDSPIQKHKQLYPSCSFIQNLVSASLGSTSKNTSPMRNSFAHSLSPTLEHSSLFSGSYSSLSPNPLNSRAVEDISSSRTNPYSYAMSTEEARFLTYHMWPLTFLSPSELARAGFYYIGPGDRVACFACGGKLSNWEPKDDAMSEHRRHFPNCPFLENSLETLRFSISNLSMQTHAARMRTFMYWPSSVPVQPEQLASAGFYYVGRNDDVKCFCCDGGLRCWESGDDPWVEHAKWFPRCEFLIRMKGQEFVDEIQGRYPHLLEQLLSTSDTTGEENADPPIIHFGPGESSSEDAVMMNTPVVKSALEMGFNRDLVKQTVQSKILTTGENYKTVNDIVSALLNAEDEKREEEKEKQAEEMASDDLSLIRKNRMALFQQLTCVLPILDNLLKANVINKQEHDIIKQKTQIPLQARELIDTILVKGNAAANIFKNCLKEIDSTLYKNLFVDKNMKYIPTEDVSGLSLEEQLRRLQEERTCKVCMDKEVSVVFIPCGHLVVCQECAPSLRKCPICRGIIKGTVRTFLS

[3] = target: T1, Estrogen receptor (Homo sapiens); experiment: Induction of ERalpha degradation in human MCF7 cells assessed as ERalpha/actin ratio level at 0.3 uM after 6 hrs by Western blot analysis (reference value: 100%)
[4] = target: T1, Estrogen receptor (Homo sapiens); experiment: Induction of ERalpha degradation in human MCF7 cells assessed as ERalpha/actin ratio level at 1 uM after 6 hrs by Western blot analysis (reference value: 100%)
[5] = target: T1, Estrogen receptor (Homo sapiens); experiment: Induction of ERalpha degradation in human MCF7 cells assessed as ERalpha/actin ratio level at 0.1 uM after 6 hrs by Western blot analysis (reference value: 100%)
[6] = target: T1, Estrogen receptor (Homo sapiens); experiment: Induction of ERalpha degradation in human MCF7 cells at 3 to 10 uM after 6 hrs by Western blot analysis
MCF7 = experiment: Cytotoxicity against human MCF7 cells at 10 uM after 6 hrs; conditions: mcf7, 6 h
[7] = target: T1, Estrogen receptor (Homo sapiens); experiment: Induction of ERalpha degradation in human MCF7 cells assessed as ERalpha/actin ratio level at 10 uM after 6 hrs by Western blot analysis (reference value: 100%)
[8] = target: T1, Estrogen receptor (Homo sapiens); experiment: Induction of ERalpha degradation in human MCF7 cells assessed as ERalpha/actin ratio level at 5 uM after 6 hrs by Western blot analysis (reference value: 100%)
[9] = target: T1, Estrogen receptor (Homo sapiens); experiment: Induction of ERalpha degradation in human MCF7 cells assessed as ERalpha/actin ratio level at 3 uM after 6 hrs by Western blot analysis (reference value: 100%)
[10] = target: T1, Estrogen receptor (Homo sapiens); experiment: Induction of ERalpha degradation in human MCF7 cells at 0.3 to 3 uM after 6 hrs by Western blot analysis

Activity [1]	Activity [2]	Activity [3] [%]	Activity [4] [%]	Activity [5] [%]	Activity [6]	Activity [7] [%]	Activity [8] [%]	Activity [9] [%]	Activity [10]	Structure (SMILES)	Activity (MCF7)
inactive	Active	100	92	105	–	–	–	–	–	CC[C@H](C)[C@H]1NC(=O)[C@@H](NC(=O)[C@H](N)CCCCNC(=O)COCCOCCNC(=O)[C@@H](NC(=O)[C@@H]2CCCN2C(=O)[C@H](NC(=O)[C@H](C)NC)C2CCCCC2)C(c2ccccc2)c2ccccc2)CSSC[C@H](C(=O)N[C@H](CCCNC(=N)N)C(=O)N[C@H](CC(C)(C)C)C(=O)N[C@H](CC(C)C)C(=O)N[C@H](CCC(N)=O)C(=O)NCC(=O)NCC(=O)NCC(=O)N[C@H](CCCNC(=N)N)C(=O)N[C@H](CCCNC(=N)N)C(=O)N[C@H](CCCNC(=N)N)C(=O)N[C@H](CCCNC(=N)N)C(=O)N[C@H](CCCNC(=N)N)C(=O)N[C@H](CCCNC(=N)N)C(=O)N[C@@H](CCCNC(=N)N)C(N)=O)NC(=O)[C@@H](CC(C)C)NC1=O	–
–	–	–	–	–	inactive	236	99	96	–	CC[C@H](C)[C@H]1NC(=O)[C@@H](NC(=O)[C@H](CCCNC(=N)N)NC(=O)COCCOCCNC(=O)[C@@H](NC(=O)[C@@H]2CCCN2C(=O)[C@H](NC(=O)[C@H](C)NC)C2CCCCC2)C(c2ccccc2)c2ccccc2)CSSC[C@H](C(=O)N[C@H](CCCNC(=N)N)C(=O)N[C@H](CC(C)(C)C)C(=O)N[C@H](CC(C)C)C(=O)N[C@H](CCC(N)=O)C(=O)NCC(=O)NCC(=O)NCC(=O)N[C@H](CCCNC(=N)N)C(=O)N[C@H](CCCNC(=N)N)C(=O)N[C@H](CCCNC(=N)N)C(=O)N[C@H](CCCNC(=N)N)C(=O)N[C@H](CCCNC(=N)N)C(=O)N[C@H](CCCNC(=N)N)C(=O)N[C@@H](CCCNC(=N)N)C(N)=O)NC(=O)[C@@H](CC(C)C)NC1=O	Toxic
–	–	109	114	–	–	–	–	95	inactive	CC[C@H](C)[C@H]1NC(=O)[C@@H](NC(=O)[C@@H](N)CCCCNC(=O)[C@@H](NC(=O)[C@@H]2CCCN2C(=O)[C@H](NC(=O)[C@H](C)NC)C2CCCCC2)C(c2ccccc2)c2ccccc2)CSSC[C@H](C(=O)N[C@H](CCCNC(=N)N)C(=O)N[C@H](CC(C)(C)C)C(=O)N[C@H](CC(C)C)C(=O)N[C@H](CCC(N)=O)C(=O)NCC(=O)NCC(=O)NCC(=O)N[C@H](CCCNC(=N)N)C(=O)N[C@H](CCCNC(=N)N)C(=O)N[C@H](CCCNC(=N)N)C(=O)N[C@H](CCCNC(=N)N)C(=O)N[C@H](CCCNC(=N)N)C(=O)N[C@H](CCCNC(=N)N)C(=O)N[C@@H](CCCNC(=N)N)C(N)=O)NC(=O)[C@@H](CC(C)C)NC1=O	–
